The record followed here is patent publication US20120101099A1, “HISTONE DEACETYLASE INHIBITORS” (ANTHEM BIOSCIENCES PRIVATE LIMITED, priority 2009, published 2012).

One assay deals with HT-29. Kind of assay: Cell proliferation assay (MTT). The format is cell-based. The conditions noted are these: Homo sapiens, HT-29; Table 1; MTT, 48 hours; read-out: Cell growth inhibition (GI50 in μM) HT-29. On the procedure:
(§1) Cells were seeded in a 96-well cell culture plates at a concentration of 10,000 cells per well and incubated at 37° C. in CO2 incubator.
(§2) Twenty-four hours later cells were treated with different concentrations (100, 10, 1, 0.1, and 0.01 μM) of compound dissolved in DMSO and incubated for 48 hours. For To measurement, 24 hours after seeding the cells, 20 μL of 3-(4.5-dimethyl-2- thiazolyl)-2,5-diphenyl-2H-tetrazolium (MTT) solution per well was added to the T0 plate and incubated for 3 hours at 37° C. in a CO2 incubator.
(§3) The plate containing cells and test compounds was treated similarly after 48 hours of incubation. After 3 hours of MTT addition, well contents were aspirated carefully followed by addition of 100 μL DMSO per well. Plates were agitated to ensure dissolution of the formazan crystals in DMSO and absorbance was read at 570 nm (A570). […] From the percentage growths a dose response curve was generated and GI50 values were interpolated from the growth curves.

Another assay concerns NCI-H460. The assay is described as follows: Cell proliferation assay (MTT). The assay is classed as cell-based. The conditions noted are these: Homo sapiens, Table 1, MTT, 48 hours, read-out: Cell growth inhibition (GI50 in μM) NCI H460. Here is the method:
as §1, §2, §3

In another assay the test system is PC-3. The assay is described as follows: Cell proliferation assay (MTT). The format is cell-based. The conditions noted are these: Homo sapiens, PC-3; Table 1; MTT, 48 hours; read-out: Cell growth inhibition (GI50 in μM) PC-3. On the procedure:
as §1, §2, §3

The test system of assay [1] is human HDAC (Hela cells nuclear extract). The assay is described as follows: HDAC activity screening, Hela nuclear extract, Boc-Lys(Ac)-AMC substrate. The format is biochemical. The conditions noted are these: Hela nuclear extract; for HDAC % Inhibition (1 μM): 1 μM compound; for HDAC % Inhibition (10 μM): 10 μM compound; for IC50: read-out: IC50 (50% HDAC inhibitory concentration), Table 2. On the procedure: To study the human HDAC inhibition the in-house 96 well plate assay have been established using fluorescent substrate (Boc-Lys (Ac)-AMC Substrate). Hela cells nuclear extract have been used as enzyme source.
Assay was performed in 96-well black microplate and total volume of the assay was 100 μL. Hela nuclear extract was diluted HDAC assay buffer (final concentration of 3.0 μg/mL). Enzyme mixture was made of 10 μL of diluted enzyme and 30 μL of HDAC buffer. 40 μl of enzyme mixture followed by 10 μL of test compound (final concentration from 0.01 to 10 μM) or vehicle (control) was added to each well. The plate was pre-incubated at 37° C. for 10 minutes. The HDAC reaction was started by adding 50 μl of HDAC substrate Boc-Lys (Ac)-AMC (Anaspec, Inc Fremont, Calif., USA). The plate was incubated at 37° C. for 45 minutes. The reaction was stopped by adding 50 μL of Trypsin stop solution and plate further incubated at 37° C. for 15 minutes. Measuring the fluorescence at excitation wavelength of 360 nm and emission wavelength of 460 nm monitored the release of AMC. Buffer alone and substrate alone served as blank.

Turning to `O=C(NO)c1ccc(Cn2cc(-c3ccc(F)cc3)nn2)cc1` [Example 3, 4-[4-(4-Fluoro-phenyl)-[1,2,3]triazol-1-ylmethyl]-N-hydroxy-benzamide], the GI50 was 5.2 ± 3.5 µM in the assay on HT-29, 6.5 ± 4.2 µM in the assay with NCI-H460 and 3.4 ± 0.4 µM with PC-3. Also, the “HDAC % Inhibition (1 μM)” value in assay [1] worked out at 84%. Besides, the “HDAC % Inhibition (10 μM)” value in assay [1] is on record as 96%.
As for `O=C(NO)c1ccc(Cn2cc(-c3ccccc3F)nn2)cc1` [Example 4, 4-[4-(2-Fluoro-phenyl)-[1,2,3]triazol-1-ylmethyl]-N-hydroxy-benzamide], the GI50 stood at 2.4 ± 0.5 µM with HT-29, 3.2 ± 1.1 µM with NCI-H460 and 4.6 ± 1.6 µM in the assay on PC-3. In assay [1], the “HDAC % Inhibition (1 μM)” value worked out at 88%. The “HDAC % Inhibition (10 μM)” value in assay [1] is listed as 94%.
Consider `O=C(NO)c1ccc(Cn2cc(-c3cccnc3)nn2)cc1` [Example 5, N-Hydroxy-4-(4-pyridin-3-yl-[1,2,3]triazol-1-ylmethyl)-benzamide], for which the values for the GI50 in the assay with HT-29, with NCI-H460 and in the assay with PC-3 were 13.3 ± 2.9 µM, 19 ± 1 µM and 9.2 ± 9.5 µM, respectively. Besides, the “HDAC % Inhibition (1 μM)” value in assay [1] stood at 68%. Moreover, the “HDAC % Inhibition (10 μM)” value in assay [1] came to 88%.
Turning to `O=C(NO)c1ccc(Cn2cc(-c3ccc(-c4ccccc4)cc3)nn2)cc1` [Example 6, 4-(4-Biphenyl-4-yl-[1,2,3]triazol-1-ylmethyl)-N-hydroxy-benzamide], the values for the 50% growth inhibitory concentration (GI50) with HT-29, in the assay with NCI-H460 and in the assay with PC-3 were 16.3 µM, more than 100 µM and more than 100 µM, respectively. The “HDAC % Inhibition (1 μM)” value in assay [1] is given as 75%. Also, the “HDAC % Inhibition (10 μM)” value in assay [1] was determined as 87%.
For `COc1ccc(-c2cn(Cc3ccc(C(=O)NO)cc3)nn2)cc1` [Example 7, N-Hydroxy-4-[4-(4-methoxy-phenyl)-[1,2,3]triazol-1-ylmethyl]-benzamide], the 50% growth inhibitory concentration (GI50) came to 1.4 ± 0.5 µM in the assay with HT-29, 3.1 ± 1.7 µM with NCI-H460 and 2.6 ± 1.2 µM with PC-3. In assay [1], the “HDAC % Inhibition (1 μM)” value is reported as 90%. The “HDAC % Inhibition (10 μM)” value in assay [1] came to 94%.
Turning to `O=C(NO)c1ccc(Cn2cc(-c3ccc(CCN4CCOCC4)cc3)nn2)cc1` [Example 12, N-Hydroxy-4-{4-[4-(2-morpholin-4-yl-ethyl)-phenyl]-[1,2,3]triazol-1-ylmethyl}-benzamide], in assay [1], the IC50 stood at 0.0128 µM.
Turning to `O=C(NO)c1ccc(Cn2cc(-c3ccc(CN4CCCC4)cc3F)nn2)cc1` [Example 14, 4-[4-(2-Fluoro-4-pyrrolidin-l-ylmethyl-phenyl)-[1,2,3]triazol-1-ylmethyl]-N-hydroxy-benzamide], the IC50 in assay [1] was 0.0134 µM.
The same measure, in the same setting: with `O=C(NO)c1ccc(Cn2cc(-c3ccc(CN4CCOCC4)cc3F)nn2)cc1` [Example 15, 4-[4-(2-Fluoro-4-morpholin-4-ylmethyl-phenyl)-[1,2,3]triazol-1-ylmethyl]-N-hydroxy-benzamide] the figure was 0.00733 µM.
For `CN(C)c1ccc(-c2cn(Cc3ccc(/C=C/C(=O)NO)cc3)nn2)cc1` [Example 17], the results for the GI50 in the assay on HT-29, in the assay with NCI-H460 and in the assay on PC-3 were 0.38 ± 0.12 µM, 7.06 ± 6.98 µM and 4.4 µM, respectively. The “HDAC % Inhibition (1 μM)” value in assay [1] is listed as 93%. Further, the “HDAC % Inhibition (10 μM)” value in assay [1] turned out to be 99%.
With `O=C(/C=C/c1ccc(Cn2cc(-c3ccc(F)cc3)nn2)cc1)NO` [Example 18], in the assay with HT-29, the 50% growth inhibitory concentration (GI50) was more than 100 µM. In the assay with NCI-H460, the GI50 came to 2.21 µM. In assay [1], the “HDAC % Inhibition (1 μM)” value came out at 98% and the “HDAC % Inhibition (10 μM)” value was 100%.
Regarding `O=C(/C=C/c1ccc(Cn2cc(-c3ccccc3)nn2)cc1)NO` [Example 19], the GI50 in the assay with HT-29 was 0.2 µM. Moreover, the concentration for 50% growth inhibition (GI50) with NCI-H460 is 3.38 µM. In assay [1], the “HDAC % Inhibition (1 μM)” value was 98% and the “HDAC % Inhibition (10 μM)” value turned out to be 101%.
As to `CN(C)c1ccc(-c2cn(Cc3cccc(/C=C/C(=O)NO)c3)nn2)cc1` [Example 23, (E)-3-{3-[4-(4-Dimethylamino-phenyl)-[1,2,3]triazol-1-ylmethyl]-phenyl}-N-hydroxy-acrylamide], the 50% growth inhibitory concentration (GI50) is 0.2 µM in the assay with HT-29, 0.3 µM in the assay with NCI-H460 and 12.2 µM in the assay on PC-3. Further, in assay [1], the “HDAC % Inhibition (1 μM)” value came to 96%. In assay [1], the “HDAC % Inhibition (10 μM)” value was determined as 99%.
For the compound `O=C(/C=C/c1cccc(Cn2cc(-c3cccnc3)nn2)c1)NO` [Example 24, N-Hydroxy-3-[3-(4-pyridin-3-yl-[1,2,3]triazol-1-ylmethyl)-phenyl]-acrylamide], the GI50 in the assay with HT-29 amounted to 0.48 µM. Further, the 50% growth inhibitory concentration (GI50) with NCI-H460 was 10.7 µM. Further, in assay [1], the “HDAC % Inhibition (1 μM)” value came to 96% and the “HDAC % Inhibition (10 μM)” value came to 101%.
Regarding `Cc1ccc(-c2cn(CS(=O)(=O)NCc3ccc(C(=O)NO)cc3)nn2)cc1` [Example 28], in assay [1], the “HDAC % Inhibition (1 μM)” value amounted to 84% and the “HDAC % Inhibition (10 μM)” value amounted to 96%.
As to `O=C(NO)c1ccc(CNS(=O)(=O)Cn2cc(-c3ccc(F)cc3)nn2)cc1` [Example 29, 4-{[4-(4-Fluoro-phenyl)-[1,2,3]triazol-1-ylmethanesulfonylamino)-methyl}-N-hydroxy-benzamide], in assay [1], the “HDAC % Inhibition (1 μM)” value worked out at 87% and the “HDAC % Inhibition (10 μM)” value is listed as 98%.
For the compound `O=C(NO)c1ccc(CNS(=O)(=O)Cn2cc(-c3ccccc3F)nn2)cc1` [Example 30, 4-{[4-(2-Fluoro-phenyl)-[1,2,3]triazol-1-ylmethanesulfonylamino]-methyl}-N-hydroxy-benzamide], in assay [1], the “HDAC % Inhibition (1 μM)” value came out at 92% and the “HDAC % Inhibition (10 μM)” value was found to be 99%.
Take `CN(C)c1ccc(-c2cn(CS(=O)(=O)NCc3ccc(C(=O)NO)cc3)nn2)cc1` [Example 31, 4-{[4-(4-Dimethylamino-phenyl)-[1,2,3]triazol-1-ylmethanesulfonylamino]-methyl}-N-hydroxy-benzamide]: in assay [1], the “HDAC % Inhibition (1 μM)” value is on record as 85% and the “HDAC % Inhibition (10 μM)” value is reported as 97%.
Regarding `COc1ccc(-c2cn(CS(=O)(=O)NCc3ccc(C(=O)NO)cc3)nn2)cc1` [Example 32, N-Hydroxy-4-{[4-(4-methoxy-phenyl)-[1,2,3]triazol-1-ylmethanesulfonylamino]-methyl}-benzamide], in assay [1], the “HDAC % Inhibition (1 μM)” value came to 79% and the “HDAC % Inhibition (10 μM)” value was 91%.
Turning to `O=C(NO)c1ccc(CNS(=O)(=O)Cn2cc(-c3cccnc3)nn2)cc1` [Example 33, N-Hydroxy-4-[(4-pyridin-3-yl-[1,2,3]triazol-1-ylmethanesulfonylamino)-methyl]-benzamide], in assay [1], the “HDAC % Inhibition (1 μM)” value was 63% and the “HDAC % Inhibition (10 μM)” value amounted to 92%.
Turning to `O=C(NO)c1ccc(CNS(=O)(=O)Cn2cc(-c3ccccc3)nn2)cc1` [Example 34], the GI50 was determined as 23.8 µM with HT-29, 19.9 µM in the assay with NCI-H460 and 23.3 µM in the assay on PC-3. Besides, the “HDAC % Inhibition (1 μM)” value in assay [1] stood at 91%. Moreover, the “HDAC % Inhibition (10 μM)” value in assay [1] is given as 99%.
On the same counts, the results for `O=C(/C=C/c1cccc(CNS(=O)(=O)Cn2cc(-c3ccccc3)nn2)c1)NO` [Example 35, N-Hydroxy-3-{3-[(4-phenyl-[1,2,3]triazol-1-ylmethanesulfonylamino)-methyl]-phenyl}-acrylamide] are 19.3 µM, 20.4 µM, 47.7 µM, 67% and 92%.
